# Assay results published in US8703750B2, “Mixtures and methods for the induction of resistance in plants” (priority 2004, dated 2014).
# Where two headings read alike, the source gives them in different places.
# How the values were obtained:
# [1] = system: Plasmopara viticola; details: in vivo
# Procedure: After remaining 7 days in a conditioned environment, the plants were infected on the lower side with an aqueous suspension of Plasmorpara viticola spores (200,000 spores per cm^3).
# (§1) The plants were kept in a humidity saturated environment, at 21° C., for the incubation period of the fungus and, at the end of this period (7 days), the fungicidal activity is evaluated according to an evaluation percentage scale from 100 (healthy plant) to 0 (completely infected plant).
# E is the expected fungicidal activity, in the absence of synergetic effects, from a blend obtained by mixing g.x of the compound X with g.y of the compound Y;
# x is the activity of compound X when used alone at a dose of g.x;
# y is the activity of compound Y when used alone at a dose of g.y.
# When the fungicidal activity found experimentally is greater than the value of E, said activity should be considered as being a synergetic effect.
# [2] = system: Peronospora tabacina; experiment: Control of Peronospora Tabacina on tobacco in preventive leaf application (greenhouse test); assay type: in vivo
# Procedure: After remaining 7 days in a conditioned environment, the plants were infected on the lower side with an aqueous suspension of Peronospora Tabacina spores (200,000 spores per cm^3).
# as §1, with “After remaining 24 hours” for “The plants were kept”, “C., the plants were transferred to another conditioned environment” for “C.,”
# [3] = system: cultivar Borlotto of Vigevano bean plants; assay type: in vivo, bean plant; parameters: key: 100 = healthy plant, 0 = completely necrotic/decoloured
# Procedure: After 7 days in a conditioned environment, the intensity of the necrosis or leaf decolouring is evaluated with an evaluation scale from 100 (healthy plant) to 0 (plant completely infected with necrosis or decoloured).
# [4] = system: cultivar Merlot vines; experiment: Undesired effects (necrosis or leaf decolouring) on vines in the Plasmopara viticola greenhouse test; details: in vivo
# Procedure: Leaves of cultivar Merlot vines, grown in vases, in a conditioned environment (20±1° C., 70% relative humidity), were treated by spraying both sides of the leaves with the blends in question dispersed in an aqueous solution containing 0.3% of tween 20.
# [5] = system: cultivar Burley tobacco plants; details: in vivo
# Procedure: Leaves of cultivar Burley tobacco plants, grown in vases, in a conditioned environment (20±1° C., 70% relative humidity), were treated by spraying both sides of the leaves with the blends in question dispersed in an aqueous solution containing 0.3% of tween 20.
# Undesired effects refer to the appearance of necrosis or leaf decolouring.
# [6] = 125 ppm of each component, 7 days after leaf spraying, bean plant
Compound,Activity (y) [1],also measured
FeNH4SO4,18,
"O=S(=O)([O-])[O-].[Cu+2] [CuSO4, copper sulphate]",48,Activity (y) ([2]; in vivo): 45
"[Cu+2].[OH-].[OH-] [Cu hydroxide, cuprum hydroxyde]",34,
"O=C(O)c1ccccc1[O-].O=C(O)c1ccccc1[O-].[Cu+2] [Cu^2+SA2, copper (II) salt of salicylic acid]",,Leaf decolouring ([3]; in vivo): 5; Leaf necrosis ([3]; in vivo): 42
"[Fe+2].c1ccc2c(c1)-c1nc-2nc2[n-]c(nc3nc(nc4[n-]c(n1)c1ccccc41)-c1ccccc1-3)c1ccccc21 [Fe (II) phthalocyanine, iron phthalocyanine]",14,
silicic acid,14,
"O=S(=O)([O-])[O-].[Fe+2] [FeSO4, iron sulphate]",40,Activity (y) ([2]; in vivo): 15
[Cl-].[Cl-].[Cu+2].[Cu+2].[Cu+2].[Cu+2].[OH-].[OH-].[OH-].[OH-].[OH-].[OH-] [Tetracopper oxychloride],28,
"O=C(O)c1cc(Cl)nc(Cl)c1 [INA, 2,6-dichloroisonicotinic acid, reference compound]",,"Leaf decolouring [3, 6]: 10; Leaf necrosis [3, 6]: 50"
"[Cl-].[Cu+2].[Cu+2].[OH-].[OH-].[OH-] [Cu oxychloride, cuprum oxychloride]",18,
"O=c1ccc2cc(O[C@@H]3O[C@H](CO)[C@@H](O)[C@H](O)[C@H]3O)c(O)cc2o1 [Esculine, esculin]",10,
O=c1ccc2ccccc2o1 [Cumarine],10,
"O=C(O)c1ccccc1[O-].O=C(O)c1ccccc1[O-].[Cu+2] [Cu^2+ SA, copper (II) salt of salicylic acid]",,Leaf decolouring ([3]; in vivo): 5; Leaf necrosis ([3]; in vivo): 55
"O=S(=O)([O-])[O-].[Zn+2] [ZnSO4, zinc sulphate]",22,Activity (y) ([2]; in vivo): 20
"CC(N)CC(=O)O (stereo not drawn) [BABA, β-aminobutyric acid, reference compound]",,"Leaf decolouring [3, 6]: 15; Leaf necrosis [3, 6]: 30"
Fe(III) glutamate,16,
"O=C1NS(=O)(=O)c2ccccc21 [Saccharin, saccharin]",30,
copper phthalocyanine [Cu (II) Phthalocyanine],10,Undesired effects [4]: 0
titanium dioxide [TiO2],24,"Activity (y) ([2]; Table 5, compound alone at dose g.y ppm Equivalent Metal: TiO2 24, FeSO4 28, ZnSO4 33, CuSO4 32, ZnO 33): 5; Undesired effects [5]: 0"
O=C([O-])[C@H](O)[C@@H](O)[C@H](O)[C@H](O)CO.O=C([O-])[C@H](O)[C@@H](O)[C@H](O)[C@H](O)CO.[Fe+2] [Fe (II) gluconate],28,
"[O]=[Zn] [ZnO, zinc oxide]",30,Activity (y) ([2]; in vivo): 15
[C-]#N.[C-]#N.[C-]#N.[C-]#N.[C-]#N.[C-]#N.[C-]#N.[C-]#N.[C-]#N.[C-]#N.[C-]#N.[C-]#N.[C-]#N.[C-]#N.[C-]#N.[C-]#N.[C-]#N.[C-]#N.[Fe+2].[Fe+2].[Fe+2].[Fe+3].[Fe+3].[Fe+3].[Fe+3] [Prussian blue],13,
